PubChem BioAssay (NCI)
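Each compound was tested at five concentrations against cells in 96-well plates for 48 hours. At the GI50, growth is halved. TGI is the concentration that stops growth completely.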

Assays:
Experiment in all cases: growth of human tumour cells (NCI), 48 h; in the data active = GI50 below about 0.43 µM; inactive = the rest
[1] = system: BT-549 breast
[2] = system: MDA-MB-435
[3] = system: NCI-H23 lung
[4] = system: SNB-75 CNS
[5] = system: T-47D breast
[6] = system: 786-0 renal
[7] = system: SNB-19 CNS
[8] = system: CCRF-CEM leukemia
[9] = system: SK-OV-3 ovarian
[10] = system: SF-539 CNS
[11] = system: OVCAR-3 ovarian
[12] = system: UO-31 renal
[13] = system: RPMI-8226 leukemia
[14] = system: A549 NSCLC
[15] = system: HOP-92 NSCLC
[16] = system: HL-60(TB) leukemia
[17] = system: SR leukemia
[18] = system: IGROV1 ovarian
[19] = system: EKVX NSCLC
[20] = system: SK-MEL-2 melanoma
[21] = system: HCT-116 colon
[22] = system: DU-145 prostate
[23] = system: SF-295 CNS
[24] = system: SK-MEL-5 melanoma
[25] = system: NCI-H522 lung
[26] = system: TK-10 renal
[27] = system: HS 578T breast
[28] = system: ACHN renal
[29] = system: K-562 leukemia
[30] = system: HCT-15 colon
[31] = system: MCF7 breast
[32] = system: HT29 colon
[33] = system: OVCAR-5 ovarian
[34] = system: NCI-H460 lung
[35] = system: NCI/ADR-RES ovarian
[36] = system: SW-620 colon
[37] = system: KM12 colon
[38] = system: M14 melanoma
[39] = system: NCI-H226 lung
[40] = system: OVCAR-8 ovarian
[41] = system: A498 renal
[42] = system: U251 CNS
[43] = system: PC-3 prostate
[44] = system: CAKI-1 renal
[45] = system: SF-268 CNS
[46] = system: HOP-62 NSCLC
[47] = system: SN12C renal
[48] = system: HCC-2998 colon
[49] = system: LOX IMVI melanoma
[50] = system: UACC-62 melanoma
[51] = system: MDA-MB-231 breast
[52] = system: MOLT-4 leukemia
[53] = system: SK-MEL-28 melanoma
[54] = system: UACC-257 melanoma
[55] = system: COLO 205 colon
[56] = system: OVCAR-4 ovarian
[57] = system: RXF 393 renal
[58] = system: MALME-3M melanoma

O=C(Oc1ccccc1Cl)c1ccccc1Nc1ccnc(C(F)(F)F)c1
> 30.8 µM: TGI [31]
2.39 µM: TGI [6]
0.385 µM: TGI [13]
0.698 µM: TGI [35]
74.1 µM: TGI [27]
13.4 µM: TGI [15]
17.6 µM: TGI [41]
2.57 µM: TGI [47]
> 70.3 µM: TGI [25]
0.913 µM: TGI [38]
0.808 µM: TGI [28] | TGI [42]
2.05 µM: TGI [50]
> 26.2 µM: TGI [34]
3.55 µM: TGI [43]
21.5 µM: TGI [14]
0.502 µM: TGI [51]
27 µM: TGI [4]
0.545 µM: TGI [24]
46.4 µM: TGI [9]
1.36 µM: TGI [37]
14.3 µM: TGI [40]
> 100 µM: TGI [5] | TGI [7] | TGI [16] | TGI [17] | TGI [18] | TGI [20] | TGI [32]
3.39 µM: TGI [29]
20.6 µM: TGI [1]
0.248 µM: TGI [3]
4.61 µM: TGI [26]
3.65 µM: TGI [21]
20 µM: TGI [36]
0.297 µM: TGI [2]
13.3 µM: TGI [22]
5.26 µM: TGI [48]
> 57.9 µM: TGI [12]
active: GI50 [2] 0.107 µM | GI50 [3] 0.0428 µM | GI50 [8] 0.0324 µM | GI50 [10] 0.383 µM | GI50 [11] 0.247 µM | GI50 [13] 0.106 µM | GI50 [15] 0.271 µM | GI50 [17] 0.0282 µM | GI50 [23] 0.27 µM | GI50 [24] 0.264 µM | GI50 [25] 0.38 µM | GI50 [26] 0.415 µM | GI50 [28] 0.281 µM | GI50 [29] 0.0768 µM | GI50 [30] 0.219 µM | GI50 [32] 0.389 µM | GI50 [34] 0.422 µM | GI50 [35] 0.269 µM | GI50 [36] 0.15 µM | GI50 [37] 0.299 µM | GI50 [38] 0.252 µM | GI50 [39] 0.286 µM | GI50 [40] 0.366 µM | GI50 [42] 0.271 µM | GI50 [43] 0.306 µM | GI50 [47] 0.289 µM | GI50 [49] 0.0261 µM | GI50 [50] 0.165 µM | GI50 [51] 0.202 µM | GI50 [52] 0.258 µM
0.915 µM: TGI [39]
24.4 µM: TGI [33]
0.538 µM: TGI [30]
inactive: GI50 [1] 0.635 µM | GI50 [4] 0.676 µM | GI50 [5] 31.2 µM | GI50 [6] 0.859 µM | GI50 [7] 7.43 µM | GI50 [9] 8.02 µM | GI50 [12] 9.63 µM | GI50 [14] 1.36 µM | GI50 [16] 0.472 µM | GI50 [18] 16.3 µM | GI50 [19] 6.85 µM | GI50 [20] 26.4 µM | GI50 [21] 1.78 µM | GI50 [22] 3.42 µM | GI50 [27] 20 µM | GI50 [31] 1.01 µM | GI50 [33] 0.459 µM | GI50 [41] 3.92 µM | GI50 [44] 0.599 µM | GI50 [45] 0.71 µM | GI50 [46] 2.69 µM | GI50 [48] 2.22 µM
1.76 µM: TGI [44]
1.09 µM: TGI [23]
0.533 µM: TGI [11]
1.88 µM: TGI [10]
26 µM: TGI [19]
7.86 µM: TGI [46]
0.0864 µM: TGI [49]

COc1ccc(C(=O)COc2cccc(/C=C3\CSc4ccc(C)cc4C3=O)c2)cc1
10.2 µM: TGI [52]
72.9 µM: TGI [45]
57.6 µM: TGI [11]
45.5 µM: TGI [53]
5.25 µM: TGI [17]
8.06 µM: TGI [49]
> 100 µM: TGI [1] | TGI [3] | TGI [4] | TGI [5] | TGI [6] | TGI [54] | TGI [7] | TGI [8] | TGI [9] | TGI [10] | TGI [12] | TGI [14] | TGI [19] | TGI [20] | TGI [22] | TGI [23] | TGI [55] | TGI [24] | TGI [56] | TGI [26] | TGI [27] | TGI [28] | TGI [30] | TGI [32] | TGI [33] | TGI [34] | TGI [37] | TGI [38] | TGI [39] | TGI [40] | TGI [41] | TGI [42] | TGI [43] | TGI [44] | TGI [46] | TGI [47] | TGI [50] | TGI [58] | TGI [51]
18.7 µM: TGI [35]
6.47 µM: TGI [13]
43.8 µM: TGI [18]
43.3 µM: TGI [16]
6.9 µM: TGI [29]
31.3 µM: TGI [31]
5.71 µM: TGI [21]
49 µM: TGI [57]
37.2 µM: TGI [25]
4.74 µM: TGI [36]
inactive: GI50 [1] 27.6 µM | GI50 [2] 3.59 µM | GI50 [3] 6.99 µM | GI50 [4] 27.9 µM | GI50 [5] 11.7 µM | GI50 [53] 17.4 µM | GI50 [6] 38.5 µM | GI50 [54] 49.2 µM | GI50 [7] > 100 µM | GI50 [8] 2.76 µM | GI50 [9] 74.2 µM | GI50 [10] > 100 µM | GI50 [11] 15.4 µM | GI50 [12] 19.9 µM | GI50 [13] 1.89 µM | GI50 [14] > 100 µM | GI50 [16] 5.44 µM | GI50 [17] 1.98 µM | GI50 [18] 12.2 µM | GI50 [19] 25.1 µM | GI50 [20] 15.9 µM | GI50 [21] 1.91 µM | GI50 [22] 64.5 µM | GI50 [23] 15.8 µM | GI50 [55] 31.8 µM | GI50 [24] 10.9 µM | GI50 [56] 7.26 µM | GI50 [25] 3.62 µM | GI50 [26] 19.8 µM | GI50 [27] 40.4 µM | GI50 [57] 19.9 µM | GI50 [28] 25.7 µM | GI50 [29] 2.17 µM | GI50 [30] 11.7 µM | GI50 [31] 2.64 µM | GI50 [32] 6.02 µM | GI50 [33] 51.9 µM | GI50 [34] > 100 µM | GI50 [35] 3.89 µM | GI50 [36] 2.03 µM | GI50 [37] 3.69 µM | GI50 [38] 23.6 µM | GI50 [39] > 100 µM | GI50 [40] 5.89 µM | GI50 [41] > 100 µM | GI50 [42] 7.38 µM | GI50 [43] 5.86 µM | GI50 [44] 28.7 µM | GI50 [45] 19.3 µM | GI50 [46] 24.9 µM | GI50 [47] 31.8 µM | GI50 [49] 2.53 µM | GI50 [50] 14.2 µM | GI50 [58] 41 µM | GI50 [51] 24 µM | GI50 [52] 3.13 µM
83.9 µM: TGI [2]
